Read-outs that look alike come from different tables or passages of the source.
Legend:
[1] = target: T1, human Dopamine D2L receptor (Homo sapiens, UniProt P14416); assay: cAMP HTRF functional assay (agonist/antagonist); assay type: cell-based
T1 construct: expressed in transfected cells; host or cells: CHO-K1
Experimental: Functional profiling of agonist and antagonist activities of 8′-OH DHE on human Adrenergic α1D, Dopamine D2L, and Serotonin 5-HT1B, 5-HT1D, 5-HT1F, 5-HT3, 5-HT4e and 5-HT5A receptors (compared against the parent (DHE) molecule) was carried out as follows.
The SPA 35S-GTPγS tests were conducted with Euroscreen membrane preparations […]. The HTRF assays were conducted with recombinant cell lines. The receptor accession numbers, cellular background and reference compounds are as reported below in Table 10.
(2) DHE and 8′-OH DHE were tested for agonist and antagonist activity at the human Dopamine D2L receptor using cAMP HTRF assay (in triplicate) at the following nanomolar concentrations: […]
Agonist activity of the test compounds was expressed as a percentage of the activity of the reference agonist at its EC100 concentration. Antagonist activity of the test compounds was expressed as a percentage of the inhibition of the reference agonist activity at its EC80 concentration. Dose-response data from the test compounds were analyzed with XLfit (IDBS) software using nonlinear regression applied to a sigmoidal dose-response model and the following equation: […]

[2] = tested on: VIP/PACAP (PAC1/VPAC1/VPAC2); assay: Aequorin assay; assay type: cell-based, human; settings: VIP/PACAP receptors
Experimental: (§1) Additional receptor agonist/agonist activity assessments were performed using the 8′-OH DHE test compound. Table 12 contains a summary of the cell lines (CHO-K1/HEK293 transfected with relevant human receptor) and the assays performed to detect any agonist or antagonist activity.
(§2) Aequorin assays were conducted to monitor activity for 8′-OH DHE against the receptors indicated in Table 12 above (except for mGlu3 and mGlu5). CHO-K1 cells co-expressing mitochondrial apoaequorin and the recombinant human receptor of interest were grown to mid-log phase in culture media without antibiotics and then detached with PBS-EDTA, centrifuged and resuspended in assay buffer (DMEMHAM's F12 with HEPES, without phenol red+0.1% BSA, protease free) at a concentration of 1×10^6 cell/mL. Cells were incubated at RT for at least 4 hours with coelenterazine h. Reference agonistant/agonist was tested to evaluate the performance of the assay and to determine EC50/IC50.
(§3) 50 μL of the cell suspension was mixed with 50 μL of test or reference agonist in a 96-well plate. The resulting emission of light was recorded using Hamamatsu Functional Drug Screening System 6000 (FDSS 6000) luminometer. For antagonist testing, 100 μL of the reference agonist at its EC80 was injected on the mix of cells and test compound, following an incubation of 15 minutes after the first injection. The resulting emission of light was recorded using the FDSS 6000 luminometer. To standardize the emission of recorded light (and determine of the ‘100% signal’) across plates and across different experiments, some wells contained 100 μM digitonin or a saturating concentration of ATP (20 μM).

[3] = tested on: Cholecystokinin (CCK1/CCK2); assay: Aequorin assay; assay type: cell-based, human; settings: CCK receptors
Experimental: as §1, §2, §3

Neurokinin (NK1/NK2/NK3) = assay: Aequorin assay; assay type: cell-based, human; settings: Neurokinin receptors
Experimental: as §1, §2, §3

Orexin (OX1/OX2) = assay: Aequorin assay; assay type: cell-based, human; settings: Orexin receptors
Experimental: as §1, §2, §3

[4] = subcutaneous, 1.5 mM; cited from earlier work

T1 sequence (P14416 whole entry): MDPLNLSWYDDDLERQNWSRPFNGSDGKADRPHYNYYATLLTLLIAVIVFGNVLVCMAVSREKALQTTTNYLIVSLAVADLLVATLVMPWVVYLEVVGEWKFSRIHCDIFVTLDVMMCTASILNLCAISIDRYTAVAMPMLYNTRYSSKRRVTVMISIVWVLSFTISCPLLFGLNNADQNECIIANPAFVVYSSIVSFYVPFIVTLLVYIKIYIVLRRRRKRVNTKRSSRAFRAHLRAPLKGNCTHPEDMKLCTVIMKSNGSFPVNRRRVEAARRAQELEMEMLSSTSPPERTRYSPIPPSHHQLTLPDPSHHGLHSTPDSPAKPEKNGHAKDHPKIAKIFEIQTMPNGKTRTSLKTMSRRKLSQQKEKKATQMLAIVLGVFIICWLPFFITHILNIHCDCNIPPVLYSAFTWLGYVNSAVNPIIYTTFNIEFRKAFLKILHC

SMILES	EC50 ([1]; Dopamine D2L, cAMP HTRF, read-out: Functional activity (agonist)) [nM]	Activity (Agonism: EC50; Antagonism: IC50) [2]	Activity (Agonism: EC50; Antagonism: IC50) [3]	Activity (Agonism: EC50; Antagonism: IC50) (Neurokinin (NK1/NK2/NK3))	Activity (Agonism: EC50; Antagonism: IC50) (Orexin (OX1/OX2))	nausea, share of treated patients [4] [%]	EC50 [1] [nM]
CN1C[C@H](C(=O)N[C@]2(C)O[C@@]3(O)[C@@H]4CCC(O)N4C(=O)[C@H](Cc4ccccc4)N3C2=O)C[C@@H]2c3cccc4[nH]cc(c34)C[C@H]21 (stereo partly shown) [8′-OH DHE, 8′-Hydroxy-Dihydroergotamine]	1.61	Inactive	Inactive	Inactive	Inactive		
CN1C[C@H](C(=O)N[C@]2(C)O[C@@]3(O)[C@@H]4CCCN4C(=O)[C@H](Cc4ccccc4)N3C2=O)C[C@@H]2c3cccc4[nH]cc(c34)C[C@H]21 [DHE, Dihydroergotamine]						~16	0.835

Reference: patent US20150306096A1, “8'-HYDROXY-DIHYDROERGOTAMINE COMPOUNDS AND COMPOSITIONS” (MAP Pharmaceuticals, Inc., priority 2012, published 2015)
